Measurements as given in patent US10738080B2, “Inhibitors of beta integrin-G protein alpha subunit binding interactions” (priority 2010, dated 2020).
No end group written: not given here. *: point of attachment. Myristoyl = CCCCCCCCCCCCCC(=O)*

Columns and labels:
[1] = molecular target: T1, Gα13 binding to β3 (Homo sapiens, UniProt P05106+Q14344); test: Co-immunoprecipitation of β3 with Gα13 from platelet lysates; details: for co-immunoprecipitation between Gα13 and β3: platelets/platelet lysates, 500 μM peptide
T1 construct: Proteins from platelet lysates were immunoprecipitated with control IgG or antibody to Gα13; The integrin αIIbβ3 was co-immunoprecipitated by anti-Gα13 antibody, but not control IgG, from platelet lysates; endogenous in cells; host or cells: washed human platelets (lysates)
T1 sequence (Q14344 1-377): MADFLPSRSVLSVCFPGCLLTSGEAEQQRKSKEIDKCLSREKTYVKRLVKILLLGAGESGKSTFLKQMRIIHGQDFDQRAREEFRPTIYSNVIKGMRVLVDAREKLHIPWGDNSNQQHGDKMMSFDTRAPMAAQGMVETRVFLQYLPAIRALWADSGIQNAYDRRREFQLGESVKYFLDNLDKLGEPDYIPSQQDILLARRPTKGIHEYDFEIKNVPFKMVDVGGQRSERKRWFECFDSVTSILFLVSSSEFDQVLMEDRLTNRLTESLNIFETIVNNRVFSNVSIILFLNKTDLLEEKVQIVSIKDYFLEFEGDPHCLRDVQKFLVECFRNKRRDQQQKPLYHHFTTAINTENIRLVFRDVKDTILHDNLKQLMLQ
T1 sequence (P05106 27-788): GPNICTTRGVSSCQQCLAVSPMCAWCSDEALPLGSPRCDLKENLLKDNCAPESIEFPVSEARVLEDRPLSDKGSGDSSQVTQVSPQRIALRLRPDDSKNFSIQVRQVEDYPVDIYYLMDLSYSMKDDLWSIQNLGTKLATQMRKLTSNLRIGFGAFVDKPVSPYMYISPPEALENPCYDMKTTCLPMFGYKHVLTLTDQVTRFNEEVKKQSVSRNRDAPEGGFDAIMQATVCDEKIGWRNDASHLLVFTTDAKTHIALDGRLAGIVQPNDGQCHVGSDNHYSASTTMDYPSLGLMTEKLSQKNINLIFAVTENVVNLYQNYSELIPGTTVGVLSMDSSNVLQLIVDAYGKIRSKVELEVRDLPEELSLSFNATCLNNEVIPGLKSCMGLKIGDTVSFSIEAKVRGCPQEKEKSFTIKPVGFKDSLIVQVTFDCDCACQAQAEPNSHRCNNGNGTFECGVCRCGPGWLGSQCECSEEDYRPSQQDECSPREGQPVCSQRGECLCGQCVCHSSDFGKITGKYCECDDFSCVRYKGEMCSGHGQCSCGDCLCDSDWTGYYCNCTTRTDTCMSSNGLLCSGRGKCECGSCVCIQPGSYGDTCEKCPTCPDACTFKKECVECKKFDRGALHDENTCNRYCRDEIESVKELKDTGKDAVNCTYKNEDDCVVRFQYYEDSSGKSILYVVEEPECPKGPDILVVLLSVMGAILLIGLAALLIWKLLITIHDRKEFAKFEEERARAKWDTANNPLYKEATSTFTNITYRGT
Experimental: As previously described (S7), cell lysates were incubated with 2 μg/ml of D57 (antibody to integrin αIIbβ3), LJP3 (antibody against GPIb), or mouse IgG, and further incubated with protein G-conjugated Sepharose beads. Cell lysates were also incubated with rabbit anti-Gα13 IgG antibody (1.5 μg/ml) or an equal amount of rabbit IgG and further incubated with protein A-conjugated Sepharose beads. After 3-6 washes with lysis buffer, immunoprecipitates were analyzed by SDS-polyacrylamide gel electrophoresis and Western blots with antibodies against β3 (MAb15), GPIb (anti-IbαC (S8)) or Gα13. In some experiments, 1 μM GDP, 1 μM GTPγS or 30 μM AlF4^− were added to the reaction to assess the effect of Gα13 activation on integrin binding. In other experiments, 250 μM mSRI or scrambled control peptide was incubated with platelet lysates prior to immunoprecipitation. GST bead pull down analysis was previously described (S7). Purified Gα13 was incubated with glutathione beads-bound to GST, GST-β1CD or GST-β3 CD at 4° C. overnight. Bead-bound proteins were analyzed by immunoblotting. For GST-β3CD cDNA construction, integrin-β3 cytoplasmic domain (716-762) cDNA was generated by PCR and cloned into pGEX-4T2 vector using Bam HI and Xho I restriction sites. The forward primer is 5′-[…]-3′ (SEQ ID NO: 48); the reverse primer is 5′-[…]-3′ (SEQ ID NO: 49). For GST-I31CD cDNA construction, β1 cytoplasmic domain (752-798) cDNA was amplified by PCR and cloned into pGEX-4T1 vector using EcoRI and Xho I restriction sites. The primer sequences are: (1) forward: 5′-[…]-3′ (SEQ ID NO: 50); (2) reverse: […]-3′ (SEQ ID NO: 51). GST, GST-β1CD and GST-β3CD were purified from BL21 (DE3) E. coli using glutathione-conjugated beads.
Cell lysates were incubated with rabbit anti-Gα13 IgG (1.5 μg/ml), anti-integrin β3 rabbit serum (5 μl/ml) or an equal amount of rabbit IgG or pre-immune serum at 4° C. overnight, and subsequently with protein A-conjugated Sepharose beads for 1 hour. For the integrin β3 clustering experiment, human platelets (3×10^8) were stimulated with 0.025 U/ml α-thrombin for 2 minutes at room temperature (to avoid platelet aggregation) with or without 2 mM RGDS, then incubated with 5 μl anti-integrin β3 8053 rabbit serum at room temperature for 1 hour, and 5 μg goat anti-rabbit secondary antibody for another 1 hour. Platelets were then solubilized in modified RIPA Buffer. For the un-clustering control and pre-immune serum control, cells were solubilized in modified RIPA Buffer first, than incubated with 5 μl 8053 serum or pre-immune serum. After 3-6 washes with lysis buffer, immunoprecipitates were analyzed by SDS-polyacrylamide gel electrophoresis and Western blots using antibodies against β3, talin, or Gα13. In some experiments, 500 μM control or inhibitor peptides, mP5, mP7 and mP13 were incubated with platelet lysates prior to immunoprecipitation, or 2 mM RGDS was added into washed human platelets before stimulation by 0.025 U/ml α-thrombin. GST bead pull down analysis was previously described^8. Purified Gα13 or MBP-talin head were incubated with glutathione beads-bound to GST or GST-β3CD at 4° C. overnight. Bead-bound proteins were analyzed by immunoblotting.

[2] = tested on: RhoA; test: RhoA activity assay (GST-RBD pull down) in platelets; type: cell-based, human; details: human platelets adherent to fibrinogen
Experimental: Platelets in modified Tyrode's buffer or adherent on immobilized fibrinogen were lysed quickly in 0.8 ml lysis buffer (50 mM Tris, pH 7.4, 10 mM MgCl2, 500 mM NaCl, 1% Triton X-100, 0.1% SDS, 0.5% deoxycholate, 10 μg/ml each of aprotinin and leupeptin, 1 mM phenylmethylsulfonyl fluoride, and 200 μM sodium vanadate). Lysates were cleared by centrifugation at 18,000 g for 2 minutes at 4° C., and the supernatant was incubated for 1 hour with 30 μg purified GST-Rhotekin RhoA-binding domain fusion protein (GST-RBD) bound to glutathione-Sepharose beads (S10). Samples were washed three times using washing buffer (50 mM Tris, pH 7.4, 10 mM MgCl2, 150 mM NaCl, 1% Triton X-100) and then immunoblotted with an anti-RhoA monoclonal antibody. Cell lysates were also immunoblotted with anti-RhoA as loading control.

Substance	co-immunoprecipitation between Gα13 and β3 [1]	RhoA activation (RhoA activity) [2]	c-Src-dependent transient RhoA inhibition [2]	Gα13 binding to β3 (co-immunoprecipitation of β3 with Gα13) ([1]; platelet lysates, 250 μM peptide)
Myr-EEERA [mP5]	inhibited	increased	inhibited	–
Myristoyl-KFEEERA [mP7]	inhibited	–	inhibited	–
Myristoyl-LLARRPTKGIHEY [mSRI]	–	accelerated	–	inhibited
Myristoyl-KFEEERARAKWDT [mP13]	inhibited	–	inhibited	–
